Data on 16 compounds can be found in US11332452B2, “Pesticidal compositions and methods” (priority 2019, dated 2022).

By mortality is commonly meant the percentage killed.

Holding throughout (type): in vivo
Data set [1] concerns Yellow Fever Mosquito (Aedes aegypti, AEDSAE). In words: Insecticidal test for yellow fever mosquito (YFM), 96-well plate larval assay. The settings on record: from 4000 ppm DMSO master solution, diluted; about 1 day-old larvae; room temperature; scored after 3 days. How it is done:
Insecticidal Test for Yellow Fever Mosquito (Aedes aegypti, AEDSAE) (“YFM”)
Master plates containing 400 μg of a molecule dissolved in 100 μL of dimethyl sulfoxide (DMSO) (equivalent to a 4000 ppm solution) are used. A master plate of assembled molecules contains 15 μL per well. To this plate, 135 μL of a 90:10 water/acetone mixture is added to each well. A robot (Biomek® NXP Laboratory Automation Workstation) is programmed to dispense 15 μL aspirations from the master plate into an empty 96-well shallow plate (“daughter” plate). There are 6 reps (“daughter” plates) created per master. The created “daughter” plates are then immediately infested with YFM larvae.
The day before plates are to be treated, mosquito eggs are placed in Millipore water containing liver powder to begin hatching (4 g. into 400 mL). After the “daughter” plates are created using the robot, they are infested with 220 μL of the liver powder/larval mosquito mixture (about 1 day-old larvae). After plates are infested with mosquito larvae, a non-evaporative lid is used to cover the plate to reduce drying. Plates are held at room temperature for 3 days prior to grading. After 3 days, each well is observed and scored based on mortality.

For data set [2], the system named is Cabbage Looper (Trichloplusia Ni, TRIPNI). In words: Insecticidal test for cabbage looper (CL), 128-well diet tray assay. The settings on record: Trichoplusia ni, 168 h, read-out: CL % Control (or Mortality) rating. How it is done:
Insecticidal Test for Cabbage Looper (Trichloplusia Ni, TRIPNI) (“CL”)
(§1) Bioassays on cabbage looper (CL; Trichloplusia ni: Lepidoptera) are conducted using a 128-well diet tray assay. One to five second instar CL larvae are placed in each well (3 mL) of the diet tray that had been previously filled with 1 mL of artificial diet to which 50 μg/cm^2 of the test compound (dissolved in 50 μL of 90:10 acetone-water mixture) had been applied (to each of eight wells) and then allowed to dry. Trays are covered with a clear self-adhesive cover, vented to allow gas exchange, and held at 25° C., 14:10 light-dark for five to seven days. Percent mortality is recorded for the larvae in each well; activity in the eight wells is then averaged.

Data set [3] deals with Beet Armyworm (Spodoptera exigua, LAPHEG). Kind of data set: Insecticidal test for beet armyworm (BAW), 128-well diet tray assay. To be noted: 168 h, 50 μg/cm^2 of test compound on artificial diet, second instar larvae, 25° C., five to seven days, average of eight wells, read-out: BAW % Control (or Mortality) rating. The method, then: Insecticidal Test for Beet Armyworm (Spodoptera exigua, LAPHEG) (“BAW”)
as §1, with “beet armyworm (BAW; Spodoptera exigua:” for “cabbage looper (CL; Trichloplusia ni:”, “BAW” for “CL”

Take `CC(Cc1ccc(NC(=O)Nc2ccc(OC(F)(F)F)cc2)cc1)NC(=O)/N=C1\SCC(=O)N1c1cc(Cl)ccc1OC(F)(F)F` (stereo not drawn) [Compound A36, (Z)-1-(4-(2-(3-(3-(5-Chloro-2-(trifluoromethoxy)phenyl)-4-oxothiazolidin-2-ylidene)ureido)propyl)phenyl)-3-(4-(trifluoromethoxy)phenyl)urea]: the “YFM % Control (or Mortality) rating” value in data set [1] is reported as “A (80-100)”. For the same compound, the mortality at 50 µg/cm2 in data set [2] and in data set [3] was 50 to 100% each time.
Consider `CC(C)c1ccccc1N1C(=O)CS/C1=N\C(=O)Nc1ccc(N/N=C/c2ccc(OC(F)(F)F)cc2)cc1` [Compound A54, 1-((Z)-3-(2-isopropylphenyl)-4-oxothiazolidin-2-ylidene)-3-(4-(2-((E)-4-(trifluoromethoxy)benzylidene)hydrazinyl)phenyl)urea], for which, in data set [1], the “YFM % Control (or Mortality) rating” value is “A (80-100)”. Also, the mortality at 50 µg/cm2 in data set [2] and in data set [3] was 50 to 100% each time.
In the case of `CC(C)c1ccc(Cl)cc1N1C(=O)CS/C1=N\C(=O)NCCc1ccc(NC(=O)Nc2ccc(OC(F)(F)F)cc2)cc1` [Compound A15, (Z)-1-(4-(2-(3-(3-(5-Chloro-2-isopropylphenyl)-4-oxothiazolidin-2-ylidene)ureido)ethyl)phenyl)-3-(4-(trifluoromethoxy)phenyl)urea], the “YFM % Control (or Mortality) rating” value in data set [1] is reported as “A (80-100)”. In addition, the mortality at 50 µg/cm2 in data set [2] and in data set [3] was 50 to 100% in each case.
On to `Cc1ccc(C(C)C)c(N2C(=O)CS/C2=N\C(=O)NCCc2ccc(NC(=O)c3ccc(OC(F)(F)F)cc3)cc2)c1` [Compound A49, (Z)—N-(4-(2-(3-(3-(2-isopropyl-5-methylphenyl)-4-oxothiazolidin-2-ylidene)ureido)ethyl)phenyl)-4-(trifluoromethoxy)benzamide], for which, in data set [1], the “YFM % Control (or Mortality) rating” value is listed as “A (80-100)”. For the same compound, the mortality at 50 µg/cm2 in data set [2] is 0%; in data set [3], 50 to 100%.
In the case of `Cc1ccc(OCC(F)(F)F)c(N2C(=O)CS/C2=N\C(=O)Nc2ccc(C(=O)NNc3ccc(OC(F)(F)F)cc3)cc2)c1` [Compound A3, (Z)-1-(3-(5-methyl-2-(2,2,2-trifluoroethoxy)phenyl)-4-oxothiazolidin-2-ylidene)-3-(4-(2-(4-(trifluoromethoxy)phenyl)hydrazine-1-carbonyl)phenyl)urea], the “YFM % Control (or Mortality) rating” value in data set [1] is reported as “D (No activity noticed in this bioassay)”. Further, the mortality at 50 µg/cm2 in data set [2] and in data set [3] was 50 to 100% in each case.
`Cc1ccc(C(C)C)c(-n2ccs/c2=N\C(=O)NC(C)Cc2ccc(NC(=O)Nc3ccc(OC(F)(F)F)cc3)cc2)c1` (stereo not drawn) [Compound A33, (Z)-1-(4-(2-(3-(3-(2-Isopropyl-5-methylphenyl)thiazol-2(3H)-ylidene)ureido)propyl)phenyl)-3-(4-(trifluoromethoxy)phenyl)urea]: the “YFM % Control (or Mortality) rating” value in data set [1] was “A (80-100)”. Also, the mortality at 50 µg/cm2 in data set [2] and in data set [3] was 50 to 100% each time.
With `Cc1ccc(C(C)C)c(N2C(=O)CS/C2=N\C(=O)NCCc2ccc(NC(=S)Nc3ccc(OC(F)(F)F)cc3)cc2)c1` [Compound A46, (Z)-1-(3-(2-isopropyl-5-methylphenyl)-4-oxothiazolidin-2-ylidene)-3-(4-(3-(4-(trifluoromethoxy)phenyl)thioureido)phenethyl)urea], in data set [1], the “YFM % Control (or Mortality) rating” value was “A (80-100)”. Also, the mortality at 50 µg/cm2 in data set [2] and in data set [3] was 50 to 100% in each case.
Regarding `COc1ccc(N2C(=O)CS/C2=N\C(=O)NC(C)Cc2ccc(NC(=O)Nc3ccc(C(F)(F)F)cc3)cc2)c(C)c1` (stereo not drawn) [Compound A31, (Z)-1-(4-(2-(3-(3-(4-Methoxy-2-methylphenyl)-4-oxothiazolidin-2-ylidene)ureido)propyl)phenyl)-3-(4-(trifluoromethyl)phenyl)urea], the “YFM % Control (or Mortality) rating” value in data set [1] was “A (80-100)”. The mortality at 50 µg/cm2 in data set [2] is 50 to 100%; in data set [3], 0 to 50%.
For `Cc1ccc(C(C)C)c(N2C(=O)CS/C2=N\C(=O)NC(C)Cc2ccc(NC(=O)Nc3ccc(OC(F)(F)F)cc3)cc2)c1` (stereo not drawn) [Compound A26, (Z)-1-(3-(2-Isopropyl-5-methylphenyl)-4-oxothiazolidin-2-ylidene)-3-(1-(4-(3-(4-(trifluoromethoxy)phenyl)ureido)phenyl)propan-2-yl)urea] the same measures were “A (80-100)”, 50 to 100% and 50 to 100%.
Regarding `CCCc1ccc(OC)cc1N1C(=O)CS/C1=N\C(=O)NCCc1ccc(NC(=O)Nc2ccc(OC(F)(F)F)cc2)cc1` [Compound A18, (Z)-1-(4-(2-(3-(3-(5-Methoxy-2-propylphenyl)-4-oxothiazolidin-2-ylidene)ureido)ethyl)phenyl)-3-(4-(trifluoromethoxy)phenyl)urea], in data set [1], the “YFM % Control (or Mortality) rating” value is recorded as “B (More than 0-Less than 80)”. In addition, the mortality at 50 µg/cm2 in data set [2] and in data set [3] was 50 to 100% throughout.
Take `O=C(/N=C1\SCC(=O)N1c1cc(Cl)ccc1OCC(F)(F)F)Nc1ccc(NNC(=O)c2ccc(OC(F)(F)F)cc2)cc1` [Compound A6, (Z)-1-(3-(5-Chloro-2-(2,2,2-trifluoroethoxy)phenyl)-4-oxothiazolidin-2-ylidene)-3-(4-(2-(4-(trifluoromethoxy)benzoyl)hydrazinyl)phenyl)urea]: the “YFM % Control (or Mortality) rating” value in data set [1] is “D (No activity noticed in this bioassay)”. The mortality at 50 µg/cm2 in data set [2] and in data set [3] was 0% in each case.
For `Cc1cc(N2C(=O)CS/C2=N\C(=O)NCCc2ccc(NC(=O)Nc3ccc(OC(F)(F)F)cc3)cc2)c(C(C)C)cc1F` [Compound A25, (Z)-1-(4-(2-(3-(3-(4-Fluoro-2-isopropyl-5-methylphenyl)-4-oxothiazolidin-2-ylidene)ureido)ethyl)phenyl)-3-(4-(trifluoromethoxy)phenyl)urea], the “YFM % Control (or Mortality) rating” value in data set [1] was “A (80-100)”. Moreover, the mortality at 50 µg/cm2 in data set [2] and in data set [3] was 50 to 100% each time.
On to `Cc1ccc(C(C)C)c(N2C(=O)CS/C2=N\C(=O)Nc2ccc(CCNC(=O)c3ccc(OC(F)(F)F)cc3)cc2)c1` [Compound A50, (Z)—N-(4-(3-(3-(2-isopropyl-5-methylphenyl)-4-oxothiazolidin-2-ylidene)ureido)phenethyl)-4-(trifluoromethoxy)benzamide], for which the “YFM % Control (or Mortality) rating” value in data set [1] is reported as “A (80-100)”. For the same compound, the mortality at 50 µg/cm2 in data set [2] and in data set [3] was 50 to 100% throughout.
As to `Cc1ccc(C(C)C)c(N2C(=O)CS/C2=N\C(=O)NCCc2ccc(NC(=O)Oc3ccc(OC(F)(F)F)cc3)cc2)c1` [Compound A53, 4-(trifluoromethoxy)phenyl (Z)-(4-(2-(3-(3-(2-isopropyl-5-methylphenyl)-4-oxothiazolidin-2-ylidene)ureido)ethyl)phenyl)carbamate], the “YFM % Control (or Mortality) rating” value in data set [1] was “A (80-100)”. Further, the mortality at 50 µg/cm2 in data set [2] and in data set [3] was 50 to 100% each time.
With `Cc1ccc(C(C)C)c(N2C(=O)CS/C2=N\C(=O)Nc2ccc(NC(=O)Nc3ccc(OC(F)(F)F)cc3)cc2)c1` [Compound A7, (Z)-1-(3-(2-isopropyl-5-methylphenyl)-4-oxothiazolidin-2-ylidene)-3-(4-(3-(4-(trifluoromethoxy)phenyl)ureido)phenyl)urea], in data set [1], the “YFM % Control (or Mortality) rating” value is reported as “A (80-100)”. Besides, the mortality at 50 µg/cm2 in data set [2] and in data set [3] was 50 to 100% each time.
As to `Cc1cc(Cl)c(N2C(=O)CS/C2=N\C(=O)NC(C)Cc2ccc(NC(=O)Nc3ccc(OC(F)(F)F)cc3)cc2)cc1C` (stereo not drawn) [Compound A41, (Z)-1-(4-(2-(3-(3-(2-Chloro-4,5-dimethylphenyl)-4-oxothiazolidin-2-ylidene)ureido)propyl)phenyl)-3-(4-(trifluoromethoxy)phenyl)urea], in data set [1], the “YFM % Control (or Mortality) rating” value is recorded as “B (More than 0-Less than 80)”. Also, the mortality at 50 µg/cm2 in data set [2] and in data set [3] was 50 to 100% in each case.
